According to PMC7177216, “A Novel Highly Sensitive Method for Measuring Inflammatory Neural-Derived APC Activity in Glial Cell Lines, Mouse Brain and Human CSF” (International Journal of Molecular Sciences, 2020):

Columns and labels:
Bovine thrombin = target: T1, Bovine thrombin (Bos taurus, UniProt P00735); conditions: 1 µM inhibitor; 20 µM substrate; 1 mM CaCl2, 50 mM Tris-HCl pH 8.0; 37 °C
T1 construct: gene F2

bovine FXa = target: T2, bovine FXa (Bos taurus, UniProt P00743); conditions: 1 µM inhibitor; 20 µM substrate; 1 mM CaCl2, 50 mM Tris-HCl pH 8.0; 37 °C
T2 construct: gene F10
T2 sequence (P00743 41-180): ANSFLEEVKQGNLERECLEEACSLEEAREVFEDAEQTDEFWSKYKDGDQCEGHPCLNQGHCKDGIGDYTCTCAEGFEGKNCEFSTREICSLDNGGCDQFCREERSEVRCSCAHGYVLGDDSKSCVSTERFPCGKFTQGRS
T2 sequence (P00743 234-492): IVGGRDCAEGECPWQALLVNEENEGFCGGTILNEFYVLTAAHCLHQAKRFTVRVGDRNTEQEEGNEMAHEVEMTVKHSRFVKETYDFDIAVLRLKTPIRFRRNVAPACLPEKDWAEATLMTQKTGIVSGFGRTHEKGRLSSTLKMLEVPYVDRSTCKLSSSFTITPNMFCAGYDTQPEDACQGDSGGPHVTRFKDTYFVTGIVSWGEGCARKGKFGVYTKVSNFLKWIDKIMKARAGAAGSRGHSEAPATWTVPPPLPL

N=C(N)c1ccc(CC(NC(=O)CNS(=O)(=O)c2ccc3ccccc3c2)C(=O)N2CCCCC2)cc1 (centres unmarked) [NAPAP]
inhibition of cleavage of Pyr-Pro-Arg-AMC (fluorescence) (Bovine thrombin): cleavage of the substrate by thrombin was fully blocked by NAPAP
inhibition of cleavage of Pyr-Pro-Arg-AMC (fluorescence) (bovine FXa): FXa activity was fully blocked by apixaban and partially blocked by NAPAP
